Key:
Format in all cases: cell-based
[1] = tested on: K562 cells; experiment: Cytotoxicity of Stage 3 iNK cells towards K562 cells (CFSE/7AAD assay); details: added to Stage 3 medium (IL-10 20 ng/mL, IL-18 50 ng/mL); 4 hr co-culture, E:T 3:1 (FIG. 13A)
Procedure: hiPSCs were prepared as described in CN108373998B. On Day −1, Embryoid body (EB) formation (Stage 1-1) was carried out by placing individualized hiPSCs in E8 medium containing 10 μM Blebbistatin in T25 flasks on a bellydancer and culture overnight. On Day 0, lateral mesoderm differentiation (Stage 1-2) was initiated by changing the medium to a Stage 1-2 differentiation medium comprising IF-4 basal medium and supplemented with BMP4 (25 ng/mL), VEGF (15 ng/mL), bFGF (0.5 ng/mL) and CHIR99021 (4 μM) for 2 days. On Day 2, lateral mesoderm differentiation (Stage 1-3) continued for 1 day in a Stage 1-3 differentiation medium comprising IF-4 basal medium and supplemented with BMP4 (25 ng/mL), VEGF (50 ng/mL) and bFGF (0.5 ng/mL) and CHIR99021 (1 μM). On Day 3, HE specification (Stage 1-4) was initiated by adding a Stage 1-4 differentiation medium comprising IF-4 basal medium and supplemented with VEGF (15 ng/mL), bFGF (5 ng/mL), XAV939 (5 μM) for 1 day. […] On Day 11 of co-culture, iNK cells were collected and stained with CD56-PE antibody (BD, #555516), the percentage of CD56+ cells was analyzed by flow cytometry. The cytotoxicity of Stage 3 iNK cells towards K562 cells was detected by CFSE/7AAD assay after 4 hr co-culture at E:T of 3:1.

[2] = tested on: PBNK cells; experiment: Expansion of PBNK cells from PBMCs (NK cell expansion fold; CD56+CD3− % by flow cytometry); details: heparin sodium 0-50 μg/mL in NKSFM
Procedure: The effect of the concentration of nicotinamide (NAM) in an exemplary basal medium on NK cell expansion was evaluated. The above basal medium comprised the following components: IMDM (Sigma): RPMI1640 (Gibco) (50%: 50%); about 1.3 ng/mL of Cupric sulfate, about 3 μM of Ferric sulfate, about 0.432 μg/mL of Zinc sulfate, about 1-50 ng/mL of Na Selenite, about 110 μg/mL of Sodium pyruvate, 0.1-20 μg/mL of Insulin, 1-200 μg/mL of Transferrin, about 1%(v/v) of GlutaMAX-1, 0.1-20 mg/mL of HSA, 1-400 μM of MTG, about 80 μg/mL of Ascorbic acid and indicated concentration of NAM. Peripheral blood mononuclear cells (PBMCs) were isolated by density gradient centrifugation using Ficoll-Paque. On Day 0, PBMCs were plated at 1×10^6 cells/mL in a 48-well-plate in the basal medium with NAM (either 0, 1, 2, 2.5, 3, 3.5, 4, or 5 mM) and stimulated with the following reagents for 3 days: immobilized CD16 antibody (Biolegend, 302014) (135 ng/cm^2), IL-2 (700 IU/mL), IL-15 (10 ng/mL) and OK432 (0.01 KE/mL). On day 3, cells were re-suspended in the above basal medium supplemented with IL-2 (700 IU/mL) and IL-15 (10 ng/mL). Fresh medium was added every other day to maintain cell density below 2×10^6 cells/mL. Cells were collect on Day 14 and stained with CD56-PE and CD3-PerCP-Cy5.5 antibodies, the percentage of CD56^+CD3^− NK cells was analyzed by flow cytometry.
(§1) The effect of heparin sodium concentration in an exemplary NKSFM on NK cell expansion was also evaluated. NKSFM comprised the following components: IMDM (Sigma): DMEM/F12 (Gibco) (50%: 50%); about 20 μM of Ethanolamine, about 1-50 ng/mL of Na Selenite, about 110 μg/mL of Sodium pyruvate, 0.1-20 μg/mL of Insulin, 1-200 μg/mL of Transferrin, about 1%(v/v) of GlutaMAX-1, 0.1-20 mg/mL of Human serum albumin, 1-400 μM of MTG, about 80 μg/mL of Ascorbic acid, about 1-5 mM of NAM, 4%(v/v) of PLT, and indicated concentration of heparin sodium. PBMCs were isolated by density gradient centrifugation using Ficoll-Paque. On Day 0, PBMCs were plated at 1×10^6 cells/mL in a 48-well-plate in NKSFM with heparin sodium (0, 0.5, 1, 3, 10, 30, or 50 μg/mL) and stimulated with the following reagents for 3 days: immobilized CD16 antibody (Biolegend, 302014) (135 ng/cm^2), OK432 (0.01 KE/mL), NeoIL-2 (50 ng/mL), IL-12 (10 ng/mL), IL-18 (50 ng/mL). […] Cells were collect on Day 13 and stained with CD56-PE and CD3-PerCP-Cy5.5 antibodies, the percentage of CD56^+CD3^− NK cells was analyzed by flow cytometry. The specific lysis of K562 tumor cells by NK cells were assessed by CFSE/7-AAD cytotoxicity assay. […] After incubation for 4 hours, cells were stained with 7-AAD (Live/dead staining) and analyzed with flow cytometry.
The effect of PLT percentage (v/v) in an exemplary NKSFM on NK cell expansion was evaluated. […]

[3] = tested on: K562 tumor cells; experiment: Specific lysis of K562 tumor cells by expanded NK cells (CFSE/7-AAD cytotoxicity assay); details: heparin sodium 0-50 μg/mL in NKSFM; E:T 3:1, 4 hours (FIG. 3C)
Procedure: as §1, with “Ficoll-Paque.” for “Ficoll-Paque. On Day 0, PBMCs were plated at 1×10^6 cells/mL in a 48-well-plate in NKSFM with heparin sodium (0, 0.5, 1, 3, 10, 30, or 50 μg/mL) and stimulated with the following reagents for 3 days: immobilized CD16 antibody (Biolegend, 302014) (135 ng/cm^2), OK432 (0.01 KE/mL), NeoIL-2 (50 ng/mL), IL-12 (10 ng/mL), IL-18 (50 ng/mL).”
The effect of PLT percentage (v/v) in an exemplary NKSFM on NK cell expansion was evaluated. […] Cells were collect on Day 14 and stained with CD56-PE and CD3-PerCP-Cy5.5 antibodies, the percentage of CD56^+CD3^− NK cells was analyzed by flow cytometry. The specific lysis of K562 tumor cells by NK cells were assessed by CFSE/7-AAD cytotoxicity assay. […]

| Substance | cytotoxicity of iNK cells towards K562 cells [1] | NK cell expansion fold, effect of concentration ([2]; Day 13 (FIG. 3A)) | percentage of CD56^+CD3^− NK cells, effect of concentration ([2]; Day 13 (FIG. 3B)) | specific lysis of K562 tumor cells, effect of concentration [3] |
| --- | --- | --- | --- | --- |
| IL-10: interleukin added to Stage 3 expansion and maturation medium | significantly improve | – | – | – |
| heparin sodium | – | significantly influences | minimal effect | minimal effect |

Source: patent US20240316196A1, “METHODS AND COMPOSITIONS FOR DIFFERENTIATION OF PLURIPOTENT STEM CELLS AND DERIVED NATURAL KILLER CELLS” (NUWACELL BIOTECHNOLOGIES CO., LTD., priority 2022, published 2024)
